Tested on: collagen-induced arthritis
Assay: Collagen-induced arthritis model
Assay type: in vivo
Conditions: DBA/1JN mouse, oral once daily for 4 weeks
Description: A solution of Type II collagen derived from bovine and Freund's complete adjuvant were mixed to prepare an emulsion. This emulsion was used to elicit collagen-induced arthritis in a 7-week-old female DBA/1JN mouse. The initial sensitization was carried out by subcutaneous administration of the emulsion in the tail of the mouse at a dose of 150 μg/100 μL/body. 21 days after the initial sensitization, a freshly prepared collagen emulsion solution was administered subcutaneously in the tail of the mouse at a dose of 100 μg/100 μL/body as a secondary sensitization. The mouse prepared in this procedure was used as the collagen-induced arthritis model. A compound suspended in 0.5% hydroxymethyl cellulose solution was orally administered by force once daily for 4 weeks following the additional second sensitization. Pathological scores including joint symptoms and the like were measured, and the results compared to the vehicle-treated group, from which the efficacy of the compound was evaluated.

For `CC(C)Oc1ccc(-c2cnc(-c3ccc(CN4CC(C(=O)O)C4)cc3)s2)cc1` [Example 2, 1-(4-(5-(4-isopropoxyphenyl)thiazol-2-yl)benzyl)azetidine-3-carboxylic acid], the “efficacy on pathological scores (joint symptoms)” value was “equally effective as Fingolimod”.
